Data: ChEMBL document CHEMBL1201862, “PubChem BioAssay data set” (2004)
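48-hour exposure; five concentrations; linearly interpolated endpoints. GI50 = concentration required for 50% inhibition of growth.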 Activity calls are given as the source filed them. Cut-off read from the data, not from the text of the source: active = GI50 up to about 1.1 µM and inactive = higher.

Columns and labels:
Assay in all cases: DTP human tumour cell line panel, 48 h
HL-60 = tested on: HL-60
KM12 = tested on: KM12
HOP-62 = tested on: HOP-62
MCF7 = tested on: MCF7
M14 = tested on: M14
MOLT-4 = tested on: MOLT-4
NCI-H522 = tested on: NCI-H522
CCRF-CEM = tested on: CCRF-CEM
SK-MEL-5 = tested on: SK-MEL-5
SF-539 = tested on: SF-539
EKVX = tested on: EKVX
OVCAR-5 = tested on: OVCAR-5
RXF 393 = tested on: RXF 393
PC-3 = tested on: PC-3
DU-145 = tested on: DU-145
ACHN = tested on: ACHN
OVCAR-4 = tested on: OVCAR-4
SF-268 = tested on: SF-268
K562 = tested on: K562
A498 = tested on: A498

Measured: GI50

O=C1C(c2cnc3ccccc3n2)=C(O)c2ccccc21
inactive: HL-60 > 60.4 µM | KM12 7.08 µM | HOP-62 43.4 µM | MCF7 10.3 µM | M14 > 100 µM | MOLT-4 > 70.5 µM | NCI-H522 > 72.9 µM | CCRF-CEM > 100 µM | SK-MEL-5 9.75 µM | SF-539 > 100 µM | EKVX 19.1 µM | OVCAR-5 > 70.1 µM | RXF 393 9.71 µM | PC-3 > 46.6 µM | DU-145 > 100 µM | ACHN > 86.5 µM | OVCAR-4 > 53.6 µM | SF-268 > 93.8 µM | K562 > 86.9 µM | A498 > 100 µM

CC1=NN(c2nc(N)nc(COCc3nc(N)nc(N4N=C(C)CC4(C)C)n3)n2)C(C)(C)C1
inactive: HL-60 > 100 µM | KM12 > 100 µM | HOP-62 > 100 µM | MCF7 > 100 µM | M14 > 100 µM | MOLT-4 > 100 µM | NCI-H522 > 100 µM | CCRF-CEM > 100 µM | SK-MEL-5 > 100 µM | SF-539 > 100 µM | EKVX > 100 µM | OVCAR-5 > 100 µM | RXF 393 > 100 µM | PC-3 > 100 µM | DU-145 > 100 µM | ACHN > 100 µM | OVCAR-4 > 100 µM | SF-268 > 100 µM | K562 > 100 µM | A498 > 100 µM

Brc1ccccc2cc(-c3ccccc3)nc1-2
inactive: HL-60 1.27 µM | KM12 5.97 µM | HOP-62 9.93 µM | MCF7 8.79 µM | M14 3 µM | MOLT-4 1.53 µM | NCI-H522 2.86 µM | CCRF-CEM 2.47 µM | SK-MEL-5 6.55 µM | SF-539 4.8 µM | EKVX 11.5 µM | OVCAR-5 7.43 µM | RXF 393 2.09 µM | PC-3 13.5 µM | DU-145 11.9 µM | ACHN 3.37 µM | OVCAR-4 2.9 µM | SF-268 4.85 µM | K562 2.7 µM | A498 14 µM

CC1=NN(C(=O)c2ccncc2)C(=O)C1
inactive: HL-60 > 100 µM | KM12 > 100 µM | HOP-62 > 100 µM | MCF7 > 100 µM | M14 > 100 µM | MOLT-4 89.9 µM | NCI-H522 > 100 µM | CCRF-CEM > 100 µM | SK-MEL-5 > 100 µM | SF-539 > 100 µM | EKVX > 100 µM | OVCAR-5 > 100 µM | RXF 393 > 100 µM | PC-3 > 100 µM | DU-145 > 100 µM | ACHN > 100 µM | OVCAR-4 > 100 µM | SF-268 > 100 µM | K562 > 100 µM | A498 > 100 µM

CC(C)Cn1cnc2c(NCC(C)O)nc3ccccc3c21 (stereo not given)
inactive: HL-60 37.5 µM | KM12 > 100 µM | HOP-62 > 100 µM | MCF7 > 100 µM | M14 > 100 µM | MOLT-4 63.2 µM | NCI-H522 > 100 µM | CCRF-CEM > 100 µM | SK-MEL-5 70.6 µM | SF-539 > 100 µM | EKVX 29 µM | OVCAR-5 > 100 µM | RXF 393 > 100 µM | PC-3 87.7 µM | DU-145 89.5 µM | ACHN 41.1 µM | OVCAR-4 > 100 µM | SF-268 > 100 µM | K562 61.4 µM | A498 60.8 µM
